Measurements from PubChem BioAssay (NCI).
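Method: 48-hour compound exposure of cells in 96-well plates, five concentrations, linear interpolation of endpoints. At the GI50, growth is halved. At the TGI there is no net growth.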

Experiments:
Experiment in all cases: inhibition of tumour cell growth, NCI panel, 48 h
[1] = tested on: A549 NSCLC
[2] = tested on: SR leukemia
[3] = tested on: SW-620 colon
[4] = tested on: OVCAR-8 ovarian
[5] = tested on: SF-268 CNS
[6] = tested on: ACHN renal
[7] = tested on: RXF 393 renal
[8] = tested on: OVCAR-3 ovarian
[9] = tested on: OVCAR-5 ovarian
[10] = tested on: T-47D breast
[11] = tested on: A498 renal
[12] = tested on: SNB-75 CNS
[13] = tested on: UO-31 renal
[14] = tested on: COLO 205 colon
[15] = tested on: TK-10 renal
[16] = tested on: HOP-62 NSCLC
[17] = tested on: SK-OV-3 ovarian
[18] = tested on: HCT-15 colon
[19] = tested on: HT29 colon
[20] = tested on: MDA-MB-231 breast
[21] = tested on: MOLT-4 leukemia
[22] = tested on: SK-MEL-28 melanoma
[23] = tested on: NCI-H23 lung
[24] = tested on: UACC-62 melanoma
[25] = tested on: LOX IMVI melanoma
[26] = tested on: CAKI-1 renal
[27] = tested on: NCI-H522 lung
[28] = tested on: SK-MEL-2 melanoma
[29] = tested on: PC-3 prostate
[30] = tested on: RPMI-8226 leukemia
[31] = tested on: MALME-3M melanoma
[32] = tested on: MCF7 breast
[33] = tested on: HOP-92 NSCLC
[34] = tested on: NCI-H226 lung
[35] = tested on: NCI-H460 lung
[36] = tested on: SK-MEL-5 melanoma
[37] = tested on: SF-295 CNS
[38] = tested on: M14 melanoma
[39] = tested on: NCI/ADR-RES ovarian
[40] = tested on: OVCAR-4 ovarian
[41] = tested on: BT-549 breast
[42] = tested on: DU-145 prostate
[43] = tested on: SN12C renal
[44] = tested on: 786-0 renal
[45] = tested on: SF-539 CNS
[46] = tested on: MDA-MB-435
[47] = tested on: SNB-19 CNS
[48] = tested on: HL-60(TB) leukemia
[49] = tested on: HCC-2998 colon
[50] = tested on: HCT-116 colon
[51] = tested on: KM12 colon
[52] = tested on: HS 578T breast
[53] = tested on: U251 CNS
[54] = tested on: EKVX NSCLC
[55] = tested on: UACC-257 melanoma

## O=S(=O)(Nc1ccc2ccccc2c1)N1CCCCC1
[1]
  GI50: 11.9 µM
  TGI: 38.1 µM
[2]
  GI50: 4.15 µM
  TGI: 44.6 µM
[3]
  GI50: 5.7 µM
  TGI: 20.7 µM
[4]
  GI50: 19.6 µM
  TGI: 57 µM
[5]
  GI50: 11.7 µM
  TGI: 28.8 µM
[6]
  GI50: 18.1 µM
  TGI: 60.9 µM
[7]
  GI50: 5.58 µM
  TGI: 19.7 µM
[8]
  GI50: 4.71 µM
  TGI: 16.7 µM
[9]
  GI50: 19.5 µM
  TGI: 43.7 µM
[10]
  GI50: 11 µM
  TGI: 45.8 µM
[11]
  GI50: 3.33 µM
  TGI: 15.7 µM
[12]
  GI50: 2.38 µM
  TGI: 20.7 µM
[13]
  GI50: 6.87 µM
  TGI: 22.9 µM
[14]
  GI50: 9.36 µM
  TGI: 25.3 µM
[15]
  GI50: 12.7 µM
  TGI: 32.1 µM
[16]
  GI50: 3.93 µM
  TGI: 18.7 µM
[17]
  GI50: 8.93 µM
  TGI: 37.4 µM
[18]
  GI50: 8 µM
  TGI: 35.2 µM
[19]
  GI50: 4.87 µM
  TGI: 18.9 µM
[20]
  GI50: 10.1 µM
  TGI: 25 µM
[21]
  GI50: 7.21 µM
  TGI: 58 µM
[22]
  GI50: 12 µM
  TGI: 28 µM
[23]
  GI50: 12.2 µM
  TGI: 34 µM
[24]
  GI50: 8.7 µM
  TGI: 22.2 µM
[25]
  GI50: 9.97 µM
  TGI: 24.6 µM
[26]
  GI50: 1.81 µM
  TGI: 7.97 µM
[27]
  GI50: 2.49 µM
  TGI: 8 µM
[28]
  GI50: 9.85 µM
  TGI: 23.6 µM
[29]
  GI50: 13.1 µM
  TGI: 41.5 µM
[30]
  GI50: 17.8 µM
  TGI: 75.5 µM
[31]
  GI50: 14.5 µM
  TGI: 34 µM
[32]
  GI50: 9.55 µM
  TGI: 88.9 µM
[33]
  GI50: 5.42 µM
  TGI: 20.4 µM
[34]
  GI50: 14.8 µM
  TGI: 33.2 µM
[35]
  GI50: 10.1 µM
  TGI: 23.3 µM
[36]
  GI50: 8.33 µM
  TGI: 21 µM
[37]
  GI50: 2.4 µM
  TGI: 15.2 µM
[38]
  GI50: 8.94 µM
  TGI: 25.5 µM
[39]
  GI50: 4.09 µM
  TGI: 22.2 µM
[40]
  GI50: 15.6 µM
  TGI: 50.1 µM
[41]
  GI50: 13.8 µM
  TGI: 28.4 µM
[42]
  GI50: 12.1 µM
  TGI: 30.3 µM
[43]
  GI50: 13.2 µM
  TGI: 29.1 µM
[44]
  GI50: 13.6 µM
  TGI: 30 µM
[45]
  GI50: 10.5 µM
  TGI: 24.9 µM
[46]
  GI50: 1.91 µM
  TGI: 10.8 µM
[47]
  GI50: 18.4 µM
  TGI: > 100 µM
[48]
  GI50: 9.31 µM
  TGI: 43.2 µM
[49]
  GI50: 8.35 µM
  TGI: 22.2 µM
[50]
  GI50: 9.94 µM
  TGI: 23.4 µM
[51]
  GI50: 4.21 µM
  TGI: 17.2 µM
[52]
  GI50: 11.9 µM
  TGI: 33.6 µM
[53]
  GI50: 12 µM
  TGI: 26.7 µM
[54]
  GI50: 7.99 µM
  TGI: 41 µM
[55]
  GI50: 10.1 µM
  TGI: 24 µM
